# Reference: PubChem BioAssay AID2060349 (Molecular Pharmacology Branch, DTP, NCI, 2025)
# pIC50: −log10 of the molar value.
# System: 762968-020-R-J2-PDC spheroids viability
# Test: Anticancer human tumor 762968-020-R-J2-PDC patient-derived colon carcinoma cell line growth inhibition [TAK]
# Conditions: spheroids with HUVEC and MSC; for pIC50: curve of first compound; for viability, T/C: stronger effect = lower value
# Excerpt: Combinatorial screen of targeted agents with TAK-243 and ipatasertib in multi-cell type tumor spheroids
# A high-throughput screen of multi-cell type tumor spheroids was designed to identify active combinations of targeted small molecules and TAK-243 or ipatasertib. Complex spheroids include a stromal component modeled by human endothelial cells (HUVEC) and fibroblasts modeled by human mesenchymal stem cells (MSCs). The concentration ranges selected for each drug and investigational agent were based upon clinically achievable concentrations if the clinical Cmax of the agent was known.
# Compounds. The drugs and investigational agents: TAK-243 (785004), ipatasertib (767898), everolimus (733504), selumetinib (741078), bortezomib (756655), trametinib (758246), ixazomib (758254), vemurafenib (761431), dabrafenib (764134), sapanisertib (764658), alpelisib (765974), and copanlisib (816437), were obtained from the National Cancer Institute (NCI) Developmental Therapeutics Program Chemical Repository. The FDA-approved anticancer drug set is available from the NCI Developmental Therapeutics Program. […] The stock solutions were prepared in dimethyl sulfoxide (DMSO, Sigma-Aldrich, St. Louis, MO, cat. D2650) at 800-fold the tested concentration and stored at -70 degrees C prior to their use. All drugs and investigational agents were tested over a range starting from a high concentration at or near the clinical Cmax and decreasing in half-log increments. If the clinical Cmax for an agent had not been determined, the highest concentration tested was 10 microM.
# NCI60 Cell Culture. NCI60 cell lines were obtained from the NCI Developmental Therapeutics Program Tumor Repository. For each lot of cells, the Repository performed Applied Biosystems AmpFLSTR Identifiler testing with PCR amplification to confirm consistency with the published Identifier STR profile for each cell line. Cells were kept in continuous culture for no more than 20 passages. The optimal seeding densities for each of the cell lines at each time point assessed were determined prior to performing the concentration response studies. Briefly, the NCI60 human tumor lines were grown as monolayers in RPMI 1640 medium supplemented with 10% FBS and 2 mmol/L L-glutamine.
# An additional 2 lines were from the NCI60 cell line panel including melanomas, MALME-3M and SK-MEL-2. Pooled donor human umbilical vein endothelial cells (HUVEC, Lonza, cat. CC-2519) and human mesenchymal stem cells (hMSC, Lonza, cat. PT-2501) were purchased from Lonza (Walkersville, MD).
# PDMR cell lines were grown in complete medium (DC medium): Dulbecco's modified Eagle's medium (DMEM)/F12 supplemented with 5% fetal bovine serum (FBS), 2 mM L-glutamine, 100 U/mL penicillin and 100 µg/ml streptomycin, 0.4 µg/ml hydrocortisone, 10 ng/ml epidermal growth factor (EGF) recombinant human protein, 24 µg/mL adenine, and 0.1 mg/mL primocin. During culture from frozen stock vials, PDMR cells were cultured in the same medium containing 10 µM Y-27632 (see Table 3). The PDCs were cultured in complete DMEM/F12 media without 10 microM Y-27632 dihydrochloride for at least two passages prior to the screen. The pooled donor HUVEC and hMSC were cultured in endothelial cell growth medium 2 (PromoCell, Heidelberg, Germany, cat. C-22011) and mesenchymal stem cell growth medium 2 (PromoCell, cat. C-28009), respectively. For all experiments, HUVEC and hMSC were used at passages </=5.
# For the pre-screen, cell seeding densities were determined from a titration spanning the range from 5,000 to 313 cells per well. The mct-spheroids including 60% malignant cells, 25% HUVEC and 15% MSC dispensed as a mixture into U-bottom Ultra-Low Attachment 384-well plates (Corning, NY)
# High-throughput Drug Combination Screening.
# Prior to their inoculation into 384-well plates, malignant cells, HUVEC, and hMSC were removed from T flasks using TrypLE express (Thermo Fisher Scientific, cat. 12605036) and harvested by centrifugation for 5 min at 233 x g. […]
# 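Note: spheroids exposed to drug for 7 days before readout.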
# 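Throughout, for viability, T/C: 100% = DMSO vehicle control wells.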
structure (smiles),measurement,setting,value
COC1CC2CCC(C)C(O)(O2)C(=O)C(=O)N2CCCCC2C(=O)OC(C(C)CC2CCC(OCCO)C(OC)C2)CC(=O)C(C)C=C(C)C(O)C(OC)C(=O)C(C)CC(C)C=CC=CC=C1C (stereo not given) + CC(C)NCC(C(=O)N1CCN(c2ncnc3c2C(C)CC3O)CC1)c1ccc(Cl)cc1,pIC50,second compound 0.3 µM,< 7.00
same,pIC50,second compound 0.949 µM,< 7.00
same,pIC50,second compound 3 µM,< 7.00
same,pIC50,second compound 9.49 µM,< 7.00
same,pIC50,second compound 30 µM,< 7.00
same,"viability, T/C","second compound 0.3 µM, first compound 0.000316 µM",102%
same,"viability, T/C","second compound 0.3 µM, first compound 0.001 µM",106%
same,"viability, T/C","second compound 0.3 µM, first compound 0.00316 µM",103%
same,"viability, T/C","second compound 0.3 µM, first compound 0.01 µM",103%
same,"viability, T/C","second compound 0.3 µM, first compound 0.0316 µM",103%
same,"viability, T/C","second compound 0.3 µM, first compound 0.1 µM",102%
same,"viability, T/C","second compound 0.949 µM, first compound 0.000316 µM",104%
same,"viability, T/C","second compound 0.949 µM, first compound 0.001 µM",104%
same,"viability, T/C","second compound 0.949 µM, first compound 0.00316 µM",111%
same,"viability, T/C","second compound 0.949 µM, first compound 0.01 µM",105%
same,"viability, T/C","second compound 0.949 µM, first compound 0.0316 µM",99.5%
same,"viability, T/C","second compound 0.949 µM, first compound 0.1 µM",92.3%
same,"viability, T/C","second compound 3 µM, first compound 0.000316 µM",107%
same,"viability, T/C","second compound 3 µM, first compound 0.001 µM",109%
same,"viability, T/C","second compound 3 µM, first compound 0.00316 µM",109%
same,"viability, T/C","second compound 3 µM, first compound 0.01 µM",105%
same,"viability, T/C","second compound 3 µM, first compound 0.0316 µM",95.1%
same,"viability, T/C","second compound 3 µM, first compound 0.1 µM",97.5%
same,"viability, T/C","second compound 9.49 µM, first compound 0.000316 µM",104%
same,"viability, T/C","second compound 9.49 µM, first compound 0.001 µM",105%
same,"viability, T/C","second compound 9.49 µM, first compound 0.00316 µM",95.5%
same,"viability, T/C","second compound 9.49 µM, first compound 0.01 µM",101%
same,"viability, T/C","second compound 9.49 µM, first compound 0.0316 µM",93.9%
same,"viability, T/C","second compound 9.49 µM, first compound 0.1 µM",100%
same,"viability, T/C","second compound 30 µM, first compound 0.000316 µM",92.2%
same,"viability, T/C","second compound 30 µM, first compound 0.001 µM",89%
same,"viability, T/C","second compound 30 µM, first compound 0.00316 µM",92.3%
same,"viability, T/C","second compound 30 µM, first compound 0.01 µM",86.4%
same,"viability, T/C","second compound 30 µM, first compound 0.0316 µM",92.2%
same,"viability, T/C","second compound 30 µM, first compound 0.1 µM",84.5%
